According to patent publication US20230312601A1, “THIAZOLO[5,4-B]PYRIDINE MALT-1 INHIBITORS” (AbbVie Inc., priority 2022, published 2023):

Tests used:
human MALT-1 protein = human MALT-1 protein (Homo sapiens (Human), UniProt Q9UDY8); assay: MALT-1 Biochemical Assay (Quench-FRET enzyme assay); conditions: human MALT-1 6 nM, substrate 2 μM, 40 min preincubation
Summary of the method: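 Human MALT-1 (6 nM) preincubated 40 min at room temperature with compound in pH 7.5 HEPES buffer containing 0.8 M sodium citrate and 2 mM DTT. Then 2 μM quenched TAMRA/QSY7 peptide substrate added for 60 min. Cleavage read by fluorescence (Ex 535/Em 590); EC50 is half-maximal inhibition of protease activity.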

OCI-LY3 IL6 = assay: MALT-1 Cell IL-6 AlphaLISA Assay; format: cell-based; conditions: Homo sapiens; OCI-LY3 cells, 48 hours incubation; read-out: OCI-LY3 IL6 48 hour Inhibition EC50
Summary of the method: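 MALT-1-dependent ABC-DLBCL OCI-LY3 cells were seeded at 50,000 cells/mL onto compound (30 μM to 1.5 nM) and incubated 48 hours at 37° C. Secreted human IL-6 in the medium was measured by AlphaLISA with acceptor beads, biotinylated anti-IL-6 antibody and streptavidin donor beads.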

male Sprague-Dawley rats = assay: Cardiovascular Assay in anesthetized rats; format: in vivo; conditions: rat; for HR (%) / MAP (%) / dP/dt@50 (%): change from vehicle; for Drug (μg/mL SEM): plasma at end of infusion
Method: The following cardiovascular assay was conducted using male Sprague-Dawley rats that were anesthetized with Inactin (thiobutabarbital), instrumented (catheterized both femoral artery and vein; catheterize left ventricular) and allowed to stabilize. Following a 30-minute baseline period, each compound was infused at low, medium, and high doses/30 minutes. Plasma samples were taken at the end of each dose infusion. If, at any point, the mean arterial pressure (MAP) of an animal decreased below 70 mmHg, the infusion was immediately stopped, a final blood sample was taken, and hemodynamic data for that animal was removed from the group average for all subsequent time points. A 15% change from vehicle for MAP or heart rate (HR), respectively, is considered biologically relevant. A 20% change from vehicle for dP/dt@50 is considered biologically relevant.

CYP 3A4 mRNA = assay: CYP3A4 Induction Assay (qPCR, human hepatocytes); format: in vitro ADME; conditions: 10 μM compound, relative to rifampicin 10 μM
Summary of the method: (§1)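 Cryopreserved human hepatocytes (60,000 cells/well), overlaid with Geltrex, were dosed at 10 μM final, with omeprazole, rifampicin and probenecid as controls. RNA was isolated on day 3. CYP3A4 mRNA was measured by TaqMan RT-qPCR with GAPDH as the reference gene.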

CYP3A4 mRNA = assay: CYP3A4 Induction Assay (qPCR, human hepatocytes); format: in vitro ADME; conditions: cryopreserved human hepatocytes (plated), 10 μM compound, mRNA fold over vehicle (0.1% DMSO)
Summary of the method: as §1

Sequence of human MALT-1 protein (Q9UDY8 whole entry): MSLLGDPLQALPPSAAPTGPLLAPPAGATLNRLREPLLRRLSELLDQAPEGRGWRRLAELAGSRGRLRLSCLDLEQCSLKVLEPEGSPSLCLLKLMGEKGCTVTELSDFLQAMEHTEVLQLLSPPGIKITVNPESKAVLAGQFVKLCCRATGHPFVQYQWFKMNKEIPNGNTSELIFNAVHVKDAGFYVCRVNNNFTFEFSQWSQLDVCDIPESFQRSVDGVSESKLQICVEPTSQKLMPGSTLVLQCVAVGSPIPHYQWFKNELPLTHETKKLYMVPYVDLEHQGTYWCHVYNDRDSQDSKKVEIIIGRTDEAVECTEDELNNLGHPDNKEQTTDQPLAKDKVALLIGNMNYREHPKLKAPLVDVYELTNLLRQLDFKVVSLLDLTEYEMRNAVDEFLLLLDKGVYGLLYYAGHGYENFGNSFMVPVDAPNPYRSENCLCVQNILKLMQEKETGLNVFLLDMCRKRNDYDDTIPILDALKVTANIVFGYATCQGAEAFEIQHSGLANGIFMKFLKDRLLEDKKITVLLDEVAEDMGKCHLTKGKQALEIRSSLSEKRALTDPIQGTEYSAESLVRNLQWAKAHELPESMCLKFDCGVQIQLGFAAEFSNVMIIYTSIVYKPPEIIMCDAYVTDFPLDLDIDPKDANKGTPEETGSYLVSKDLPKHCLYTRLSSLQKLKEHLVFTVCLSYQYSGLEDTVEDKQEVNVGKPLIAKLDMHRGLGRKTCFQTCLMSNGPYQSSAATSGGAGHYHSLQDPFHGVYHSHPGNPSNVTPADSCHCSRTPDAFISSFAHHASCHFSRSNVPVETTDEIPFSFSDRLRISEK

SMILES	EC50 (human MALT-1 protein) [nM]	EC50 (OCI-LY3 IL6) [nM]	HR (%) (male Sprague-Dawley rats; dose 3 mg/kg)	MAP (%) (male Sprague-Dawley rats; dose 3 mg/kg)	dP/dt@50 (%) (male Sprague-Dawley rats; dose 3 mg/kg)	HR (%) (male Sprague-Dawley rats; dose 10 mg/kg)	MAP (%) (male Sprague-Dawley rats; dose 10 mg/kg)	dP/dt@50 (%) (male Sprague-Dawley rats; dose 10 mg/kg)	HR (%) (male Sprague-Dawley rats; dose 30 mg/kg)	MAP (%) (male Sprague-Dawley rats; dose 30 mg/kg)	dP/dt@50 (%) (male Sprague-Dawley rats; dose 30 mg/kg)	Drug (μg/mL SEM) (male Sprague-Dawley rats; dose 3 mg/kg) [µg/mL]	Drug (μg/mL SEM) (male Sprague-Dawley rats; dose 10 mg/kg) [µg/mL]	Drug (μg/mL SEM) (male Sprague-Dawley rats; dose 30 mg/kg) [µg/mL]	CYP3A4 % of positive control (%) (CYP 3A4 mRNA)	fold induction at 1 day, 10 µM (CYP3A4 mRNA)
CO[C@@H](C)c1c(Nc2ccc([C@H](N(C)C(=O)C3CCN(C(C)=O)CC3)C(F)(F)F)cc2)cnc2sc(C)nc12 [Example 19, 1-acetyl-N-methyl-N-{(1S)-2,2,2-trifluoro-1-[4-({7-[(1S)-1-methoxyethyl]-2-methyl[1,3]thiazolo [5,4-b]pyridin-6-yl}amino)phenyl]ethyl}piperidine-4-carboxamide]	198	950	−5	0	−5	−5	−1	−5	−9	−2	−3	2.51 ± 0.29	8.92 ± 0.73	25.13 ± 0.98	(−0.162) %	0.985
CO[C@@H](c1c(Nc2ccc([C@H](N(C)C(=O)C3CCN(C(C)=O)CC3)C(F)(F)F)cc2)cnc2sc(C)nc12)C(F)F [Example 33, 1-acetyl-N-{(1S)-1-[4-({7-[(1S)-2,2-difluoro-1-methoxyethyl]-2-methyl[1,3]thiazolo [5,4-b]pyridin-6-yl}amino)phenyl]-2,2,2-trifluoroethyl}-N-methylpiperidine-4-carboxamide]	162	180	−5	−5	1	−7	−5	1	−8	−9	7	2.52 ± 0.39	11.20 ± 0.60	34.10 ± 1.95	(20.2) %	2.72
